Results: US20140155327A1, “Process for the Synchronization of Ovulation for Timed Breeding Without Heat Detection” (priority 2003, published 2014)

Tested on: postpartum sows
Experiment: Single timed injection 96 hours post-weaning and single timed insemination without estrus detection in postpartum sows (Example 3)
Format: in vivo, swine
Conditions: 50 mcg at 96 hours post-weaning
Method: Approximately 170 postpartum sows were randomly divided into two equal groups comprised of controls and treated. Following weaning, the controls were detected for estrus and bred following the normal standard operating procedures for the farms on which they resided. The treated sows received a 50 mcg dose of deslorelin in SAIB at 96 hours post-weaning and were bred with a single insemination 28+/−2 hours later with no regard to estrus detection. The sows were examined for pregnancy by ultrasound at 21 days and slaughtered around 28 days post breeding. The entire reproductive tract was removed and corpora lutea and embryos were counted.

For CCNC(=O)[C@@H]1CCCN1C(=O)[C@H](CCCN=C(N)N)NC(=O)[C@H](CC(C)C)NC(=O)[C@@H](Cc1c[nH]c2ccccc12)NC(=O)[C@H](Cc1ccc(O)cc1)NC(=O)[C@H](CO)NC(=O)[C@H](Cc1c[nH]c2ccccc12)NC(=O)[C@H](Cc1cnc[nH]1)NC(=O)[C@@H]1CCC(=O)N1 [Deslorelin, deslorelin], the “Sows Pregnant” value (single insemination 28+/-2 hours later, 84 in group) was 60 and the “Embryo Survival” value (slaughter around 28 days post breeding) was 64%.
